Data on 18 molecules can be found in patent publication US7670613B2, “Androgen modulators” (Pfizer Inc., priority 2004, dated 2010).

Each structure is given as a SMILES string. Numbering of substitutions follows the chain as printed. Where two headings read alike, the source gives them in different places.

One assay has as its target T1, hAR (Homo sapiens, UniProt P10275).
T1 construct: made in house; host or cells: baculovirus/Sf9 insect cells
T1 sequence (P10275 1-920): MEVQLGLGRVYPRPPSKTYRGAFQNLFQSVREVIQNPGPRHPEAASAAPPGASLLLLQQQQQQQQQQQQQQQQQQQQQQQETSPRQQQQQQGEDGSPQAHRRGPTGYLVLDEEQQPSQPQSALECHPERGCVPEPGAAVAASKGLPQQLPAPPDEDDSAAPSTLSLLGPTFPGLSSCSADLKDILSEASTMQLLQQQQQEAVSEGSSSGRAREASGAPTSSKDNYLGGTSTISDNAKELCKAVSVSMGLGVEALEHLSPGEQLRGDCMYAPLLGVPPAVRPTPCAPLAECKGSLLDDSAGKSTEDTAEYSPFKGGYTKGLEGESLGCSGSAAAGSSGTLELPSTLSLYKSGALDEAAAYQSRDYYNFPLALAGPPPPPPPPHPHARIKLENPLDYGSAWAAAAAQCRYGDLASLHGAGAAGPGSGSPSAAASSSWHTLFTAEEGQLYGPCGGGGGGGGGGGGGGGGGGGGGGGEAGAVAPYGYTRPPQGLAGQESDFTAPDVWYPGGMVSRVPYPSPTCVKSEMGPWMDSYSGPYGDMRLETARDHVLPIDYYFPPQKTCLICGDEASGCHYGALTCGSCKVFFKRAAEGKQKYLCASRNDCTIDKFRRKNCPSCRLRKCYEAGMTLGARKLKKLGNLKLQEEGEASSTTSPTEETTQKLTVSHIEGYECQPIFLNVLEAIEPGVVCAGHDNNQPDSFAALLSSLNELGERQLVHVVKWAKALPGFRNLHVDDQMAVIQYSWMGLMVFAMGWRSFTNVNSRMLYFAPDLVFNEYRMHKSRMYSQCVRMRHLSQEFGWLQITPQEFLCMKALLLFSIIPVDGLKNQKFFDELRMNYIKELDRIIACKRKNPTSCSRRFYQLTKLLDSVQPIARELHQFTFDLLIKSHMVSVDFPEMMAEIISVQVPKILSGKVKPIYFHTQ
Kind of assay: Competitive binding analysis on baculovirus/Sf9 generated hAR extracts with 3H-DHT tracer. The note with it: 1 nM 3H-DHT, one hour at 4° C., mean of multiple tests. As to the method:
The description below describes how the assay was carried out.
Competitive binding analysis was performed on baculovirus/Sf9 generated hAR extracts in the presence or absence of different concentrations of test agent and a fixed concentration of ^3H-dihydrotestosterone (^3H-DHT) as tracer. This binding assay method is a modification of a protocol previously described (Liao S., et. al. J. Steroid Biochem. 20:11-17 1984). Briefly, progressively decreasing concentrations of compounds are incubated in the presence of hAR extract (Chang et al. P.N.A.S. Vol. 89, pp. […], 1992), hydroxylapatite, and 1 nM ^3H-DHT for one hour at 4° C. Subsequently, the binding reactions are washed three times to completely remove excess unbound ^3H-DHT. hAR bound ^3H-DHT levels are determined in the presence of compounds (i.e. competitive binding) and compared to levels bound when no competitor is present (i.e. maximum binding). Compound binding affinity to the hAR is expressed as the concentration of compound at which one half of the maximum binding is inhibited.

Another assay addresses T2, androgen receptor (Homo sapiens, UniProt P10275, Q868H).
T2 construct: a human breast tumor cell line expressing androgen receptor; endogenous in cells; host or cells: MDA-MB453-MMTV clone 54-19 (only the MMTV-luciferase reporter was transfected)
T2 sequence (P10275 1-920 Q868H): T1 sequence (P10275 1-920) with Q868H
Kind of assay: AR antagonist cell assay (MDA-MB453-MMTV clone 54-19, luciferase reporter). The class given is cell-based. The settings on record: 100 pM DHT, 17 hr, mean of multiple tests. As to the method:
The compounds ability to antagonize the effects of androgen on the androgen receptor were determined in a whole cell assay as described immediately below.
Experimental Procedure for AR Antagonist Cell Assay
This cell line is a stable transfected cell line with MDA-MB453 cell background (a human breast tumor cell line expressing androgen receptor). A MMTV minimal promoter containing ARE was first cloned in front of a firefly luciferase reporter gene. Then the cascade was cloned into transfection vector pUV120puro. Electroporation method was used for transfecting MDA-MB-453 cell. Puromycin resistant stable cell line was selected.
Cell Culture Media and Reagents:
Culture medium: DMEM (high glucose, Gibco cat #: 11960-044), 10% FBS, and 1% L-glutamine
Plating medium: DMEM (phenol red free), 10% charcoal treated HyClone serum, 1% L-glutamine
Assay medium: DMEM (phenol red free), 1% charcoal treated HyClone serum, 1% L-glutamine, and 1% penicillin/streptomycin
3× luciferase buffer: 2% beta-mercaptoethanol, 0.6% ATP, 0.0135% luciferine in cell lysis buffer
• 1. Cells are maintained in culture medium, splitting cells when they reach 80-90% confluence • 2. To test compounds, 10,000 cells/well are plated to opaque 96 cell culture plate in 100 ul/well plating medium, culture for overnight at 37° C. in cell culture incubator • 3. Carefully remove plating medium, then add 80 ul/well of pre-warmed assay medium, add 10 ul/well testing compound (final concentration at) 1000 nM, 200 nM, 40 nM, 8 nM, 1.6 nM, and 0.32 nM), incubate at 37° C. for 30 minutes • 4. Add 10 ul/well freshly prepared DHT (final concentration at 100 pM) to each well, incubate at 37° C. for 17 hr (overnight) • 5.
The results are reported as the mean of multiple tests as described below (the numbers of tests are indicated in the footnote). N.D. denotes that the compound was not tested.

The conditions of assay [1]: after 7 years of treatment; cited from earlier work.
Setting [2] is: MDA-MB453-MMTV clone 54-19 cells, read-out: AR Cell IC50.
The mark [3] stands for this setting: hAR extract, read-out: AR Binding IC50.
The mark [4] stands for this setting: AR Cell IC50, MDA-MB453-MMTV clone 54-19 cells.

With `CCC1CCCCC1Oc1ccc(C#N)c(Cl)c1` (centres unmarked) [Example 27, 2-Chloro-4-(2-ethyl-cyclohexyloxy)-benzonitrile], the IC50 at hAR (AR Binding IC50, hAR extract) worked out at 30 nM; at androgen receptor (setting [2]) it was 330 nM.

`C[C@H]1CC[C@@H](Oc2ccc(C#N)c(Cl)c2)CC1` [Example 31, 2-Chloro-4-(4-cis-methyl-cyclohexyloxy)-benzonitrile]: the figures for the IC50 on hAR (setting [3]) and at androgen receptor (setting [4]) were 212 nM and 66 nM, respectively.

As for `C[C@@H]1CCCC[C@@H]1Oc1ccc(C#N)c(Cl)c1` [Example 40, (1S,2R)-2-Chloro-4-(2-methyl-cyclohexyloxy)-benzonitrile], the IC50 on hAR (AR Binding IC50, hAR extract) came out at 31 nM; on androgen receptor (setting [2]), 114 nM.

Regarding `C[C@H]1CCCC[C@@H]1Oc1ccc(C#N)c(Cl)c1` [Example 41, (1S,2S)-2-Chloro-4-(2-methyl-cyclohexyloxy)-benzonitrile], the IC50 at hAR (AR Binding IC50, hAR extract) was 18 nM; on androgen receptor (setting [2]) it was 46 nM.

`N#Cc1ccc(OC2CCCCCC2)c(Cl)c1` [Example 43, 3-Chloro-4-cycloheptyloxy-benzonitrile]: the concentration for half-maximal inhibition (IC50) on hAR (setting [3]) turned out to be 289 nM; at androgen receptor (setting [2]), 12 nM.

For `N#Cc1ccc(OC2CCCCC2)cc1Cl` [Example 45, 2-Chloro-4-cyclohexyloxy-benzonitrile], the figures for the IC50 on hAR (setting [3]) and at androgen receptor (setting [2]) were 196 nM and 147 nM, respectively.

Take `N#Cc1ccc(OC2CCCC2)cc1Cl` [Example 46, 2-Chloro-4-cyclopentyloxy-benzonitrile]: the IC50 at hAR (AR Binding IC50, hAR extract) is 49 nM; on androgen receptor (setting [2]), 18 nM.

For `CC(C)[C@H]1CC[C@H](C)C[C@@H]1Oc1ccc(C#N)c(Cl)c1` [Example 47, (1S,2R,5S)-2-Chloro-4-(2-isopropyl-5methyl-cyclohexyloxy)-benzonitrile], the results for the IC50 on hAR (setting [3]) and at androgen receptor (setting [2]) were 107 nM and 750 nM, respectively.

Regarding `C=C(C)[C@H]1CC[C@H](C)[C@@H](Oc2ccc(C#N)c(Cl)c2)C1` [Example 49, (1S,2S,5S)-2-Chloro-4-(5-isopropenyl-2-methyl-cyclohexyloxy)-benzonitrile], the IC50 stood at 10 nM at hAR (AR Binding IC50, hAR extract) and 49 nM on androgen receptor (setting [2]).

`N#Cc1ccc(O[C@@H]2CCCC[C@H]2C#N)cc1Cl` [Example 50, (1R,2S)-2-Chloro-4-(2-cyano-cyclohexyloxy)-benzonitrile]: the IC50 on hAR (AR Binding IC50, hAR extract) is 17 nM; at androgen receptor (setting [2]), 202 nM.

As for `CC1CCCC(Oc2ccc(C#N)c(Cl)c2)C1C` (centres unmarked) [Example 52, 2-Chloro-4-(2,3-dimethyl-cyclohexyloxy)-benzonitrile], the IC50 on hAR (AR Binding IC50, hAR extract) was found to be 72 nM; on androgen receptor (setting [2]), 308 nM.

On to `CC1CCCC(C)C1Oc1ccc(C#N)c(Cl)c1` (centres unmarked) [Example 53, 2-Chloro-4-(2,6-dimethyl-cyclohexyloxy)-benzonitrile], for which the IC50 at hAR (AR Binding IC50, hAR extract) is 33 nM; at androgen receptor (setting [2]), greater than 1000 nM.

Turning to `N#Cc1ccc(O[C@H]2CCCC[C@@H]2c2ccccc2)cc1Cl` [Example 55, (1S,2R)-2-Chloro-4-(2-phenyl-cyclohexyloxy)-benzonitrile], the concentration for half-maximal inhibition (IC50) at hAR (AR Binding IC50, hAR extract) was 265 nM; at androgen receptor (setting [2]), 421 nM.

As for `N#Cc1ccc(OC2CC3CCC2C3)cc1Cl` (centres unmarked) [Example 62, 4-(Bicyclo[2.2.1]hept-2-yloxy)-2-chloro-benzonitrile], the IC50 was 46 nM at hAR (AR Binding IC50, hAR extract) and less than 0.32 nM at androgen receptor (setting [2]).

As to `C[C@H]1CCC[C@@H]1Oc1ccc(C#N)c(Cl)c1` [Example 67, (1S,2S)-2-Chloro-4-(2-methyl-cyclopentyloxy)-benzonitrile], the IC50 at hAR (AR Binding IC50, hAR extract) was 44 nM; on androgen receptor (setting [2]) it was less than 0.32 nM.

With `N#Cc1ccc(OC2CCC2)cc1Cl` [Example 68, 2-Chloro-4-cyclobutyloxy-benzonitrile], the IC50 on hAR (setting [3]) was 297 nM; at androgen receptor (setting [2]) it was 103 nM.

In the case of `C=CCO[C@H]1CCCC[C@@H]1Oc1ccc(C#N)c(C(F)(F)F)c1` [Example 71, (1S,2S)-4-(2-Allyloxy-cyclohexyloxy)-2-trifluoromethyl-benzonitrile], the IC50 at hAR (setting [3]) amounted to 374 nM; against androgen receptor (setting [4]), 23 nM.

For the molecule `NCCCC(O)(P(=O)(O)O)P(=O)(O)O` [alendronate], in assay [1], the “Increase in spinal BMD” value was no more than 11%.
